From US5294617A, “Angiotensin II receptor blocking 2,3,6 substituted quinazolinones” (American Cyanamid Company, priority 1993, dated 1994)
Several values for one entry are separate records, joined by “and”; a condition that tells them apart may be missing. Identical values can stand only once.

Test system: ANGIOTENSIN II (AII) VASOPRESSOR RESPONSE
Test: AII Challenge: angiotensin II vasopressor response in conscious spontaneously hypertensive rats
Type: in vivo, Conscious Male Okamoto-Aoki SHR (rat)
Details: for % Inhibition / Average Change: SHR n=2; for Response After AII / Response Change: individual rat, SHR
Excerpt: By administering a compound of this invention to a rat, and then challenging with angiotensin II, a blockage of the vasopressor response is realized.
Conscious Male Okamoto-Aoki SHR, 16-20 weeks old, weighing approximately 330 g are purchased from Charles River Labs (Wilmington, Mass.). Conscious rats are restrained in a supine position with elastic tape. The area at the base of the tail is locally anesthetized by subcutaneous infiltration with 2% procaine. The ventral caudal artery and vein are isolated, and a cannula made of polyethylene (PE) 10-20 tubing (fused together by heat) is passed into the lower abdominal aorta and vena cava, respectively. The cannula is secured, heparinized (1,000 I.U./ml), sealed and the wound is closed. The animals are placed in plastic restraining cages in an upright position. The cannula is attached to a Statham P23Db pressure transducer, and pulsatile blood pressure is recorded to 10-15 minutes with a Gould Brush recorder. (Chan et al., (Drug Development Res., 18:75-94, 1989).
Angiotensin II (human sequence, Sigma Chem. Co., St. Louis, Mo.) of 0.05 and 0.1 ug/kg i.v. is injected into all rats (predosing response). Then a test compound, vehicle or a known angiotensin II antagonist is administered i.v., i.p. or orally to each set of rats. The two doses of angiotensin II are given to each rat again at 30, 60, 90, 120, 180, 240 and 300 minutes post dosing the compound or vehicle. The vasopressor response of angiotensin II is measured for the increase in systolic blood pressure in mmHg. The percentage of antagonism or blockade of the vasopressor response of angiotensin II by a compound is calculated using the vasopressor response (increase in systolic blood pressure) of angiotensin II of each rat predosing the compound as 100%. A compound is considered active if at 30 mg/kg i.v. it antagonized at least 50% of the response.

[1] = 2 mg/kg i.v., AII 0.05 mcg/kg IV, 30 min post dose
[2] = 2 mg/kg i.v., AII 0.05 mcg/kg IV, 60 min post dose
[3] = 2 mg/kg i.v., AII 0.05 mcg/kg IV, 90 min post dose
[4] = 2 mg/kg i.v., AII 0.05 mcg/kg IV, 120 min post dose
[5] = 2 mg/kg i.v., AII 0.05 mcg/kg IV, 180 min post dose
[6] = 2 mg/kg i.v., AII 0.1 mcg/kg IV, 30 min post dose
[7] = 2 mg/kg i.v., AII 0.1 mcg/kg IV, 60 min post dose
[8] = 2 mg/kg i.v., AII 0.1 mcg/kg IV, 90 min post dose
[9] = 2 mg/kg i.v., AII 0.1 mcg/kg IV, 120 min post dose
[10] = 2 mg/kg i.v., AII 0.1 mcg/kg IV, 180 min post dose
[11] = 10 mg/kg i.v., AII 0.05 mcg/kg IV, 30 min post dose
[12] = 10 mg/kg i.v., AII 0.05 mcg/kg IV, 60 min post dose
[13] = 10 mg/kg i.v., AII 0.05 mcg/kg IV, 90 min post dose
[14] = 10 mg/kg i.v., AII 0.05 mcg/kg IV, 120 min post dose
[15] = 10 mg/kg i.v., AII 0.05 mcg/kg IV, 180 min post dose
[16] = 10 mg/kg i.v., AII 0.05 mcg/kg IV, 240 min post dose
[17] = 10 mg/kg i.v., AII 0.05 mcg/kg IV, 300 min post dose
[18] = 10 mg/kg i.v., AII 0.1 mcg/kg IV, 30 min post dose
[19] = 10 mg/kg i.v., AII 0.1 mcg/kg IV, 60 min post dose
[20] = 10 mg/kg i.v., AII 0.1 mcg/kg IV, 90 min post dose
[21] = 10 mg/kg i.v., AII 0.1 mcg/kg IV, 120 min post dose
[22] = 10 mg/kg i.v., AII 0.1 mcg/kg IV, 180 min post dose
[23] = 10 mg/kg i.v., AII 0.1 mcg/kg IV, 240 min post dose
[24] = 10 mg/kg i.v., AII 0.1 mcg/kg IV, 300 min post dose
[25] = 2 mg/kg i.v., AII 0.05 mcg/kg IV, 30 min post dose, 2 mg/kg
[26] = 2 mg/kg i.v., AII 0.05 mcg/kg IV, 60 min post dose, 2 mg/kg
[27] = 2 mg/kg i.v., AII 0.05 mcg/kg IV, 90 min post dose, 2 mg/kg
[28] = 2 mg/kg i.v., AII 0.05 mcg/kg IV, 180 min post dose, 2 mg/kg
[29] = 2 mg/kg i.v., AII 0.1 mcg/kg IV, 30 min post dose, 2 mg/kg
[30] = 2 mg/kg i.v., AII 0.1 mcg/kg IV, 60 min post dose, 2 mg/kg

With `CCCCc1nc2ccc([C@@H]3C[C@H](CO)ON3C)cc2c(=O)n1Cc1ccc(-c2ccccc2-c2nn[nH]n2)cc1` (relative stereo) [Example 15, CIS-2-butyl-6-5-(hydroxymethyl)-2-methyl-3-isoxazolidinyl]-3-[[2'-(1H-tetrazol-5[1,1'-biphenyl]-4-yl]methyl]-4(3H)-quinazolinone] the “% Inhibition” value [1] was 43%, the “Average Change” value [1] was 26 mmHg and the “% Inhibition” value [2] was 67%. The “Average Change” value [2] was 15 mmHg, the “% Inhibition” value [3] was 67% and the “Average Change” value [3] was 15 mmHg. For the same compound, the “% Inhibition” value [4] was 67%, the “Average Change” value [4] was 15 mmHg and the “% Inhibition” value [5] was 43%. For the same compound, the “Average Change” value [5] was 26 mmHg, the “% Inhibition” value [6] was 38% and the “Average Change” value [6] was 30 mmHg. For the same compound, the “% Inhibition” value [7] was 45%, the “Average Change” value [7] was 26.5 mmHg and the “% Inhibition” value [8] was 48%. The “Average Change” value [8] was 25 mmHg, the “% Inhibition” value [9] was 62% and the “Average Change” value [9] was 18.5 mmHg. The “% Inhibition” value [10] was 54%, the “Average Change” value [10] was 22.5 mmHg and the “% Inhibition” value [11] was 78%. The “Average Change” value [11] was 10 mmHg, the “% Inhibition” value [12] was 99% and the “Average Change” value [12] was 0.5 mmHg. The “% Inhibition” value [13] was 89%, the “Average Change” value [13] was 5 mmHg and the “% Inhibition” value [14] was 72%. For the same compound, the “Average Change” value [14] was 12.5 mmHg, the “% Inhibition” value [15] was 56% and the “Average Change” value [15] was 20 mmHg. For the same compound, the “% Inhibition” value [16] was 67%, the “Average Change” value [16] was 15 mmHg and the “% Inhibition” value [17] was 70%. The “Average Change” value [17] was 13.5 mmHg, the “% Inhibition” value [18] was 100% and the “Average Change” value [18] was 0 mmHg. The “% Inhibition” value [19] was 80%, the “Average Change” value [19] was 9 mmHg and the “% Inhibition” value [20] was 72%. For the same compound, the “Average Change” value [20] was 12.5 mmHg, the “% Inhibition” value [21] was 72% and the “Average Change” value [21] was 12.5 mmHg. The “% Inhibition” value [22] was 52%, the “Average Change” value [22] was 21.5 mmHg and the “% Inhibition” value [23] was 52%. The “Average Change” value [23] was 21.5 mmHg, the “% Inhibition” value [24] was 28% and the “Average Change” value [24] was 32,5 mmHg. For the same compound, the “Response After AII” value [25] was 237 mmHg and 255 mmHg, the “Response Change” value [25] was 22 mmHg and 30 mmHg and the “Response After AII” value [2] was 245 mmHg. For the same compound, the “Response After AII” value [26] was 225 mmHg, the “Response Change” value [26] was 25 mmHg and 5 mmHg and the “Response After AII” value [27] was 230 mmHg and 235 mmHg. For the same compound, the “Response Change” value [27] was 20 mmHg and 10 mmHg, the “Response Change” value [4] was 15 mmHg and the “Response After AII” value (2 mg/kg i.v., AII 0.05 mcg/kg IV, 120 min post dose, 2 mg/kg) was 220 mmHg and 230 mmHg. The “Response After AII” value [28] was 220 mmHg and 250 mmHg, the “Response Change” value [28] was 17 mmHg and 35 mmHg and the “Response After AII” value [29] was 245 mmHg and 250 mmHg. The “Response Change” value [29] was 25 mmHg and 35 mmHg, the “Response After AII” value [30] was 255 mmHg and 235 mmHg and the “Response Change” value [30] was 35 mmHg and 18 mmHg.
